# Measured values: US20060263453A1, “Methods and compositions for modulating glutamate dehydrogenase” (priority 2004, published 2006)
# Where two headings read alike, the source gives them in different places.
# Experiments:
# [1] = cited from earlier work
# [2] = molecular target: T1, GDH (Bos taurus, UniProt P00366); experiment: abrogation of EGCG inhibition of GDH by leucine, BCH and ADP; assay type: biochemical, bovine
# T1 construct: purchased Sigma Aldrich Chemical Company (St. Louis, Mo.)
# Description: (§1) First, aliquots of GDH were extensively dialyzed against 0.1M sodium phosphate buffer, pH 7.0, which contained 1 mM ethylenediaminetetraacetic acid (EDTA). The enzyme concentrations were adjusted to 1 mg/ml and the amount of enzyme added to the reaction mixture, for kinetic analysis, was adjusted to yield optimal steady state velocity measurements. All solutions were made immediately prior to use. Enzyme assays were performed by monitoring reduced coenzyme absorbance at 340 nm using a Shimadzu UV-1601 spectrophotometer. The reductive amination reactions were performed in 3 mL volumes at pH 7.0 in the presence of 0.1 mM nicotinamide adenine dinucleotide (NADH), 50 mM NH4Cl, and 5 mM 2-oxoglutarate. The rate of NADH oxidation was calculated using an extinction coefficient of 6.22 mM^−1 cm^−1.
# The ability of the activators BCH, leucine, and ADP to reverse EGCG regulation on GDH was next examined. More particularly, kinetic analysis of GDH activity was carried out as described in Example 1, wherein each reaction contained either (a) 0 μM EGCG plus leucine; (b) 1 μM EGCG plus leucine; (c) 0 μM EGCG plus BCH; (d) 1 μM EGCG plus BCH; (e) 0 μM EGCG plus ADP; or (f) 1 μM EGCG plus ADP.
# [3] = system: HI/HA mutant forms of GDH (R265K, R269C, E296A, S448P, H454Y); experiment: kinetic analysis of HI/HA mutant forms of GDH; assay type: biochemical, human; conditions: FIG. 4
# Description: as §1
# (§2) To this end, EGCG was tested against five different HI/HA mutant forms of GDH, namely, R265K, R269C, E296A, S448P, and H454Y. In addition, EGCG was tested against human wild type GDH (“WT”), GDH from Tetrahymena thermophilia (“tGDH”) that, like the HI/HA mutant GDH enzymes, is not regulated by GTP, and a human GDH that was missing a certain 48 residue ‘antenna-like’ feature protruding from the top of each of its six subunits that is necessary for ADP, GTP, and Palmitoyl CoA regulation. […]
# [4] = system: rat islets; experiment: insulin secretion and oxygen consumption during glucose stimulation; assay type: cell-based
# Description: Next, insulin secretion and oxygen consumption were measured, as described herein, during glucose stimulation to confirm the above results. Isolated rat islets were isolated and cultured, as described above, with 10 mM glucose for 3 days and subsequently perifused in the oxygen consumption measurement apparatus described above. […] In general, FCCP is known to stimulate Mg^2+-ATPase activity, inhibit β-amyloid production, and mimic the effect of selective glutamate agonist N-methyl-D-aspartate (NMDA) on mitochondrial superoxide production. The results shown in FIG. 9 are presented as means±S.E. for 1000 islets from 3 separate experiments. Due to the high density of data, S.E. is only shown in every 20 samples.
# [5] = system: islets; experiment: [U-14C]-glucose oxidation in islets; assay type: cell-based, rat; conditions: wide range of EGCG concentrations; 3 mM or 12 mM glucose; FIG. 10
# Description: In addition, the effect of EGCG on glucose oxidation was measured. More particularly, batches of 100 islets were prepared as described herein and preincubated with glucose-free Krebs-Ringer bicarbonate buffer containing varying concentrations of EGCG (shown in FIG. 10) for 60 minutes. Islets were then incubated with 3 mM or 12 mM glucose, in the presence of the varying concentrations of EGCG, for another 60 minutes, along with 2 mCi [U-^14C]-glucose (NEN-Life Science Products, UK). Production of ^14CO2 was monitored as described above.
# [6] = system: rat islets; experiment: glucose stimulated insulin secretion (GSIS), short run-down (50 minutes), glucose ramp; assay type: cell-based; conditions: 20 μM, FIGS. 8A and 8B
# Description: In this Example, the effect of EGCG on glucose stimulated insulin secretion (GSIS) was examined. Isolated rat islets were cultured with 20 mM glucose (FIG. 8A) and 10 mM glucose (FIG. 8B) for 3 days, then perifused in the absence of glucose for 50 minutes and in the presence of 0 μM EGCG; 20 μM EGCG; or 20 μM EGC. Next, the islets were stimulated by a glucose ramp (0 to 25 mM, 0.5 mM/minute). Finally, the islets were exposed to 30 mM KCl. Insulin levels were measured every minute by radioimmunoassay. The results shown in FIG. 8A are presented as means±S.E. for 100 islets from 3 separate experiments (and means±S.E. for 100 islets from 1 experiment for FIG. 8B).
# [7] = ethanol, DMSO, dimethyl formamide; stored at −20° C.; cited from earlier work
# [8] = molecular target: T2, Bovine GDH (bGDH) (Bos taurus, UniProt P00366); experiment: reductive amination reaction catalyzed by bovine GDH (NADH absorbance at 340 nm); assay type: biochemical
# T2 construct: purchased Sigma Aldrich Chemical Company (St. Louis, Mo.)
# Description: In this Example, the effects of epigallocatechin gallate (EGCG), epigallocatechin (EGC), epicatechin gallate (ECG), and epicatechin (EC) from Camellia sinensis on GDH activity were tested. Bovine GDH (bGDH) was used in this Example, which was obtained as an aqueous (NH4)2SO4 suspension from Sigma Aldrich Chemical Company (St. Louis, Mo.).
# as §1
# [9] = system: GDH from Tetrahymena thermophilia (tGDH); experiment: kinetic analysis of Tetrahymena GDH; assay type: biochemical; conditions: FIG. 4
# Description: as §1, §2
# [10] = system: rat islets; experiment: glucose stimulated insulin secretion in 120 minute run-down islets; assay type: cell-based
# Description: Under brief “run-down” conditions used for the above GSIS analysis, where glucose was removed from the cells for only […], the levels of high-energy metabolites (i.e., GTP and ATP) have not been depleted and these effectively shut down GDH activity. This, in turn, eliminated any effect GDH might have on insulin secretion. Therefore, the effects of EGCG were also tested on […] that had been “run-down” for a longer period of time (120 minutes) prior to glucose stimulation (FIG. 11). Specifically, isolated rat islets were cultured with 10 mM glucose for 3 days and then perifused in the absence of glucose and in the presence of 0 or 20 μM EGCG (or 20 μM EGC) for “run-down” periods of 120 minutes prior to stimulation with a glucose ramp (0 to 25 mM, 0.5 mM/minute). Finally, islets were exposed to 30 mM KCl. The insert highlighted the insulin secretion from time=120 minutes to 140 minutes.
# [11] = ethanol, DMSO, dimethyl formamide
# T1 sequence (P00366 58-558): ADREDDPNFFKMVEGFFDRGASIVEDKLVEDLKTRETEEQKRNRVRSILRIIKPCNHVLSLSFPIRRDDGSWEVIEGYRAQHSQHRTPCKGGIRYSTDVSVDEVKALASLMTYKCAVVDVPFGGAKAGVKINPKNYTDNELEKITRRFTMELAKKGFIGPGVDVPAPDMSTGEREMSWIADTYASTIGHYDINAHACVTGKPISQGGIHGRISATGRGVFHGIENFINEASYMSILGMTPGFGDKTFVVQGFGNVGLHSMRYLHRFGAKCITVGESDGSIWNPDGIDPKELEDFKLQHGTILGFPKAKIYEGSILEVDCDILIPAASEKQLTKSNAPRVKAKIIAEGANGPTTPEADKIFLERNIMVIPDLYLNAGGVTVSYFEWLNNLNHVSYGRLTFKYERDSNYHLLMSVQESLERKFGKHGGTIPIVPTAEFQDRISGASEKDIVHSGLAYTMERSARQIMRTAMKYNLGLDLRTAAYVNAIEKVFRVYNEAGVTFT
# T2 sequence (P00366 58-558): as above
smiles,measurement,setting,value
"O=C(O[C@@H]1Cc2c(O)cc(O)cc2O[C@@H]1c1cc(O)c(O)c(O)c1)c1cc(O)c(O)c(O)c1 [EGCG, (2R,3R)-2-(3,4,5-Trihydroxyphenyl)-3,4-dihydro-1 (2H)-benzopyran-3,5,7-triol 3-(3,4,5-trihydroxybenzoate)]",solubility in organic solvents,[1]; [11],at least 20 mg/mL
same,soluble in organic solvents,[1]; [11],soluble
same,solubility in phosphate buffered saline (PBS),[1]; pH 7.2,at least 25 mg/mL
same,inhibition at 1 µM,"[2]; 1 μM EGCG plus leucine, BCH or ADP, read-out: EGCG inhibition at the highest concentration of activators",~30%
same,inhibition at 1 µM,"[2]; 1 μM EGCG, without activator, read-out: inhibition of the reaction",> 80%
same,inhibition of the activity of HI/HA GDH enzymes,[3],substantially the same efficacy as with wild type human GDH
same,effect on GSIS,[4]; FIG. 9A,does not affect
same,effect on respiration during glucose stimulation,[4]; FIG. 9B,does not affect
same,effect on glucose oxidation,[5],did not affect
same,effect on GSIS,[6],neither EGC nor EGCG affected
same,stability in organic solvents,[7],at least six months
same,potent inhibitor of GDH activity,[8]; FIG. 1A,potent inhibitors
same,reversibility of inhibition,"[8]; dialysis of an EGCG/GDH mixture, data not shown",reversible
same,inhibition of tGDH,[9],inhibited
same,potentiation of GSIS,"[10]; 20 μM, 120 minute run-down, FIG. 11",potentiates
same,effect on KCl-stimulated release of insulin,[10]; 30 mM KCl,neither EGCG or EGC affected
